Values after ≈ are worked out from the molar mass of the structure shown.

For this test, the system named is influenza A/Puerto Rico/8/34 (H1N1) virus. The test is classed as cell-based.
In the case of `Nc1c(Br)cc([N+](=O)[O-])cc1-c1nnn(C23CC4CC(CC(C4)C2)C3)n1` [Compound 3h, 2-[2-(Adamantan-1-yl)-2 H -tetrazol-5-yl]-6-bromo-4-nitroaniline], the “IC50 (antiviral activity)” value was found to be 15 ± 3 µg/mL (≈ 35.8 µM).

For `Nc1cc(-c2nnn(C34CC5CC(CC(C5)C3)C4)n2)ccc1O` [Compound 3i, 4-[2-(Adamantan-1-yl)-2 H -tetrazol-5-yl]-2-aminophenol], the “IC50 (antiviral activity)” value amounted to 15 ± 2 µg/mL (≈ 48.2 µM).

For the molecule `CC(N)C12CC3CC(CC(C3)C1)C2` (stereo not drawn) [Rimantadine, reference compound], the “IC50 (antiviral activity)” value came out at 12 ± 2 µg/mL (≈ 66.9 µM).

The record behind these values is article PMC8149581 (Chemistry of Heterocyclic Compounds, 2021).
